From article PMC12136037, “Type II kinase inhibitors that target Parkinson’s disease–associated LRRK2” (Science Advances, 2025)

Key:
Experiment in all cases: DSF 100 kinase selectivity screen;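 further: compound tested at 20 µM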
Type in all cases: binding
[1] = molecular target: T1, ~100 representative kinases (Homo sapiens, UniProt Q9H4A3); settings: Protein WNK1; DSF; average of three replicates
T1 construct: Recombinant protein kinase domains with a concentration of 2 μM
Summary of the method: (§1)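 Each kinase domain, at 2 μM, is mixed with 20 μM test compound and SYPRO Orange in Hepes (20 mM, pH 7.5) with 500 mM NaCl. Temperature is then raised at 3°C/min and fluorescence-monitored unfolding yields the melting temperature change, ΔTm in degrees Celsius.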

[2] = molecular target: T2, ~100 representative kinases (Homo sapiens, UniProt P45985); settings: protein MAP2K4; average of three replicates
T2 construct: Recombinant protein kinase domains with a concentration of 2 μM
T2 sequence (P45985 1-399): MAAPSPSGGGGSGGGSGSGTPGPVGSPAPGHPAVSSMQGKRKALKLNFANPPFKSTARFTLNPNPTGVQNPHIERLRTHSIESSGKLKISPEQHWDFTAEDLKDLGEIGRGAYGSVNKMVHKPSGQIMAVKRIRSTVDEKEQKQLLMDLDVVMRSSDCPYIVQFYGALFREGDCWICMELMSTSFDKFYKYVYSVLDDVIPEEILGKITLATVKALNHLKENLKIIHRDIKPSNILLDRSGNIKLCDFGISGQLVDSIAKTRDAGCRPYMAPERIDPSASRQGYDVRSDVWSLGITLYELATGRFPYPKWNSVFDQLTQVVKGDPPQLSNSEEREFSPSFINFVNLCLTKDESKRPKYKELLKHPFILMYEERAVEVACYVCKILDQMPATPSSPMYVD
Summary of the method: as §1

[3] = molecular target: T3, ~100 representative kinases (Homo sapiens, UniProt Q13153); settings: protein PAK1; average of three replicates
T3 construct: Recombinant protein kinase domains with a concentration of 2 μM
Summary of the method: as §1

[4] = molecular target: T4, ~100 representative kinases (Homo sapiens, UniProt O14733); settings: protein MAP2K7; average of three replicates
T4 construct: Recombinant protein kinase domains with a concentration of 2 μM
T4 sequence (O14733 1-419): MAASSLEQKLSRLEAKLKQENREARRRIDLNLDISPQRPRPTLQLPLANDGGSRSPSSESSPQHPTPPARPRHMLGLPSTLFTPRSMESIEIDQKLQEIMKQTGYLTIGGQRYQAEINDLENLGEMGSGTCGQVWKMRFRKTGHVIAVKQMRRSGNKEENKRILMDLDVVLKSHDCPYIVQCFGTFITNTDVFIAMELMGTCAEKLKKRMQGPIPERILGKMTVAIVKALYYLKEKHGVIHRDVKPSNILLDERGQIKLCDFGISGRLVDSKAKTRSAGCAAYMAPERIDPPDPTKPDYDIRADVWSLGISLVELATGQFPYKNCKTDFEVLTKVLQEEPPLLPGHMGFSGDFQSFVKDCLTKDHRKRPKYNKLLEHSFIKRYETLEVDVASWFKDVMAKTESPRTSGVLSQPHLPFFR
Summary of the method: as §1

[5] = molecular target: T5, ~100 representative kinases (Homo sapiens, UniProt Q92630); settings: Protein DYRK2; average of three replicates
T5 construct: Recombinant protein kinase domains with a concentration of 2 μM
T5 sequence (Q92630 1-601): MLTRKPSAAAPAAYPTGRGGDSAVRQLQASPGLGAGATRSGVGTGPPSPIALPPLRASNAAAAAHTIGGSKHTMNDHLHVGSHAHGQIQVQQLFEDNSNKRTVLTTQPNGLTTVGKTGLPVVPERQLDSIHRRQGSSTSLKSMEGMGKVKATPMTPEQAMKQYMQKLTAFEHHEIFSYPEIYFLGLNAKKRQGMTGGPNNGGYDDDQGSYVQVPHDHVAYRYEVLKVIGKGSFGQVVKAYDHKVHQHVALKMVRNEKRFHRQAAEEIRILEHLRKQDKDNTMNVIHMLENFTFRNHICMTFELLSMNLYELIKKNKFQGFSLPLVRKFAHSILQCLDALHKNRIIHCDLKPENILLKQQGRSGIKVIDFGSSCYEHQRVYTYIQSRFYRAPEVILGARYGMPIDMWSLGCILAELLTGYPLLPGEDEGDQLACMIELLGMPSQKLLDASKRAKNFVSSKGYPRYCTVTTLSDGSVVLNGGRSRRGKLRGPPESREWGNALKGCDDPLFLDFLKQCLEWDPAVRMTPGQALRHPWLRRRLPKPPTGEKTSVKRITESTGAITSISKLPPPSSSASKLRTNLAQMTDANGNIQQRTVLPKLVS
Summary of the method: as §1

[6] = molecular target: T6, ~100 representative kinases (Homo sapiens, UniProt P15735); settings: protein PHKG2; average of three replicates
T6 construct: Recombinant protein kinase domains with a concentration of 2 μM
T6 sequence (P15735 1-406): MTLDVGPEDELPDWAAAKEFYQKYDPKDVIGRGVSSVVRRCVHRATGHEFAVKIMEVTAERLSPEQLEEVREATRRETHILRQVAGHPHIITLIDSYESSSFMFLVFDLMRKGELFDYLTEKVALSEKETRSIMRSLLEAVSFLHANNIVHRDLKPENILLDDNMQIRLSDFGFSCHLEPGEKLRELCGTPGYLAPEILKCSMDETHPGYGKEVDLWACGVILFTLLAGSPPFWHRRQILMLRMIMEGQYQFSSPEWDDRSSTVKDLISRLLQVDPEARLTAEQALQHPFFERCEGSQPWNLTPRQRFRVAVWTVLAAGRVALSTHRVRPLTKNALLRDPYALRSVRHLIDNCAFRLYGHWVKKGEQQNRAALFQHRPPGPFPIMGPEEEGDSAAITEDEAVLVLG
Summary of the method: as §1

[7] = molecular target: T7, ~100 representative kinases (Homo sapiens, UniProt Q5VT25); settings: Protein CDC42BPA; average of three replicates
T7 construct: Recombinant protein kinase domains with a concentration of 2 μM
Summary of the method: as §1

[8] = molecular target: T8, ~100 representative kinases (Homo sapiens, UniProt Q00532); settings: Protein CDKL1; average of three replicates
T8 construct: Recombinant protein kinase domains with a concentration of 2 μM
Summary of the method: as §1

[9] = molecular target: T9, ~100 representative kinases (Homo sapiens, UniProt P12931); settings: Protein SRC; DSF; average of three replicates
T9 construct: Recombinant protein kinase domains with a concentration of 2 μM
Summary of the method: as §1

T3 sequence (Q13153 whole entry, the tested form may be a part): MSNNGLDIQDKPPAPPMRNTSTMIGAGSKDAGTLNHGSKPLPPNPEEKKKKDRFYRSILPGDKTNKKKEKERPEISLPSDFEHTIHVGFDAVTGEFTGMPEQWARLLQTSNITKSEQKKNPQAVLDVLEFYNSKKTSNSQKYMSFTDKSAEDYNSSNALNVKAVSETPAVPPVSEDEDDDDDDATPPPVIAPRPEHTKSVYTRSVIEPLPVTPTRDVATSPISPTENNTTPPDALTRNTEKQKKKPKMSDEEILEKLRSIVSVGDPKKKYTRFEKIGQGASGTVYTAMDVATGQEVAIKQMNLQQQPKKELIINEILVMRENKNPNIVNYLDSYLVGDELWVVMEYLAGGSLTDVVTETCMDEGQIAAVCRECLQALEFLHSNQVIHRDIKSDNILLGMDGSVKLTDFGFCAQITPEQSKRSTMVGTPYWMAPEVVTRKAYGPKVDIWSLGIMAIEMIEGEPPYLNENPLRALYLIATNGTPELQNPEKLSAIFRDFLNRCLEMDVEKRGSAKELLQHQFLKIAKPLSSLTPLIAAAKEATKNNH
T8 sequence (Q00532 whole entry, the tested form may be a part): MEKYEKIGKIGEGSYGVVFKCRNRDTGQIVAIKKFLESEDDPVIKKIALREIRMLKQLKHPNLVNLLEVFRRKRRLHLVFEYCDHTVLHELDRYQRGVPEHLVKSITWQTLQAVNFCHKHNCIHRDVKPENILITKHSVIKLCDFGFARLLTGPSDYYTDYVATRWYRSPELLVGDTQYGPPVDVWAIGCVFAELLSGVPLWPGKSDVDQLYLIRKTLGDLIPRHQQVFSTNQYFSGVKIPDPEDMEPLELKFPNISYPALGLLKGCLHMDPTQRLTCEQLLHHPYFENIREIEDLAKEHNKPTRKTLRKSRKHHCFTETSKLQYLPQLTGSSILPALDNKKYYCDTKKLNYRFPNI
T9 sequence (P12931 whole entry, the tested form may be a part): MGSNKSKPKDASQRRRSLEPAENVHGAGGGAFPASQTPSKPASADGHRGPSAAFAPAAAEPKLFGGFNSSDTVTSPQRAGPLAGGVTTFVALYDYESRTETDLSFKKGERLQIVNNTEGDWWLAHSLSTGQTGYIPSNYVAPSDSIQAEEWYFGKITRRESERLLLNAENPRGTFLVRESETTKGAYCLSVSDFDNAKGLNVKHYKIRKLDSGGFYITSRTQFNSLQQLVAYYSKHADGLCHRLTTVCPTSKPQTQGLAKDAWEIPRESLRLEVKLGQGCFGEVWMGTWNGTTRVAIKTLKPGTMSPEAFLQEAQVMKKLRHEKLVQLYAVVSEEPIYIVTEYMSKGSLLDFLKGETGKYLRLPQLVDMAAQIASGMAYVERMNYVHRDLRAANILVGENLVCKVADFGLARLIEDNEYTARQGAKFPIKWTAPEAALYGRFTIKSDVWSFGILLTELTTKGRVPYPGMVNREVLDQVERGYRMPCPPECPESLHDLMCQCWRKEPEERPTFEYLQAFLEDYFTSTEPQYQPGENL
T1 sequence (Q9H4A3 whole entry, the tested form may be a part): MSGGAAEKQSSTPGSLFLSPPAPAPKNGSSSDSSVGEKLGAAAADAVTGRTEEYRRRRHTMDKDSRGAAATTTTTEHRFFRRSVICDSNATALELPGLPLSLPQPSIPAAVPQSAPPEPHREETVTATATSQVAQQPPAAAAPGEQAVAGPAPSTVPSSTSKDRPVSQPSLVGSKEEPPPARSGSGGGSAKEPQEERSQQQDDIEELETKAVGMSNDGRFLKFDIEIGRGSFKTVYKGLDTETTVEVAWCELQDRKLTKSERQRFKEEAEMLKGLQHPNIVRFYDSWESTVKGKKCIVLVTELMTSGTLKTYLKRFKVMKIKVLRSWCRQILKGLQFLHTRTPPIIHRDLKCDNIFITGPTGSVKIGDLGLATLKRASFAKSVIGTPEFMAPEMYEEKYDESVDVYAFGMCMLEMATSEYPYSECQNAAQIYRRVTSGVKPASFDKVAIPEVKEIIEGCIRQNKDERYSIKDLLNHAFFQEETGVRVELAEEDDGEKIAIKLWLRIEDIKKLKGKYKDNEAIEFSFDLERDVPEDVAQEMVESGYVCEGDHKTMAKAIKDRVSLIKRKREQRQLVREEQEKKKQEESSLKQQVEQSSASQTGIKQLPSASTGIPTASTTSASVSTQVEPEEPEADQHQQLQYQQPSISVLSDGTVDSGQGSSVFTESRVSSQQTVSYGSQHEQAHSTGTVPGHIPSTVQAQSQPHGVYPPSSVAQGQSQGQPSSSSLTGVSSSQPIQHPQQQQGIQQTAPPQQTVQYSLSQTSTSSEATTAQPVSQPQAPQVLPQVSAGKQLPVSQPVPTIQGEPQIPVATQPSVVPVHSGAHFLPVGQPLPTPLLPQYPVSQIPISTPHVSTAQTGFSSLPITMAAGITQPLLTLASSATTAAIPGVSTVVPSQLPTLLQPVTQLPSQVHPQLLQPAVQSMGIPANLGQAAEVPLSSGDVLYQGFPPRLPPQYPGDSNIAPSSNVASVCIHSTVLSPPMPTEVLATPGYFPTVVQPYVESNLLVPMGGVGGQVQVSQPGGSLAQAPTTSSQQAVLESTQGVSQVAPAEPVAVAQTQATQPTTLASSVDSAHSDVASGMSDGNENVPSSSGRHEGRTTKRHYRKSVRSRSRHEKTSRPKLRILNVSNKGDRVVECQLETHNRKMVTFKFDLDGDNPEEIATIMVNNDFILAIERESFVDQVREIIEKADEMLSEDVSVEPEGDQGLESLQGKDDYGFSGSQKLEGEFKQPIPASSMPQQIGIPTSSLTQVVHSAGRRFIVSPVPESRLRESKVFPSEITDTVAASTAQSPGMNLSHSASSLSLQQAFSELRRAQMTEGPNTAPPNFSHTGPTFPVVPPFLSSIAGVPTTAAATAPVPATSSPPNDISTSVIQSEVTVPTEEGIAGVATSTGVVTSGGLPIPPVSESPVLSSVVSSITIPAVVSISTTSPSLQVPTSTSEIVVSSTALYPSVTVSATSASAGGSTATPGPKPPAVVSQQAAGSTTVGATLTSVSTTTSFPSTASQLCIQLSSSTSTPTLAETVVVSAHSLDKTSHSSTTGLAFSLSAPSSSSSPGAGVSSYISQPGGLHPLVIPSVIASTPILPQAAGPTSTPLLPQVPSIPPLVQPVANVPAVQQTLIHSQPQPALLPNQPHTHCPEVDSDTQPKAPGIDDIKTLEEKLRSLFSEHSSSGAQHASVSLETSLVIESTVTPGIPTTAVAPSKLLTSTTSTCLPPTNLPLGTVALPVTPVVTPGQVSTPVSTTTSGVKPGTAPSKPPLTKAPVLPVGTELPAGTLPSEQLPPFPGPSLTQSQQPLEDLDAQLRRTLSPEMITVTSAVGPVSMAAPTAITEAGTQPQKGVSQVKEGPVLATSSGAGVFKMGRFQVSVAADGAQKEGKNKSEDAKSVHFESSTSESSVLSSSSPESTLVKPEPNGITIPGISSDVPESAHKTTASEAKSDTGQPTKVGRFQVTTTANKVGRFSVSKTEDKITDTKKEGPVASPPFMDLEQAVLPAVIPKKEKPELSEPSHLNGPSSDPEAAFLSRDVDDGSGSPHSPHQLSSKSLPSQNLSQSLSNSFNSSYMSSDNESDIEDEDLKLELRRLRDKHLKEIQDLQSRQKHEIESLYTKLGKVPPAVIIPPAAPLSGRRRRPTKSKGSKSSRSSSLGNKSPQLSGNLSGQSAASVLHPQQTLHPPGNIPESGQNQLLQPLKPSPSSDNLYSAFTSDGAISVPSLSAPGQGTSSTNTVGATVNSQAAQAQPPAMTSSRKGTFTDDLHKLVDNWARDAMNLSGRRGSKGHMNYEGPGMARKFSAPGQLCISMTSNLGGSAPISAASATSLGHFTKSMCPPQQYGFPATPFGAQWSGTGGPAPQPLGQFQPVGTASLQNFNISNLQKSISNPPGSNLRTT

O=C(Nc1cccc(-c2c[nH]c3ncnc(N4CCOCC4)c23)c1)C1(C(=O)Nc2ccc(F)c(F)c2)CC1 [Compound 17]
dTm [1]: 0.57 K
dTm [2]: 5.80 K
dTm [3]: 3.52 K
dTm [4]: 4.27 K
dTm [5]: 7.75 K
dTm [6]: 2.57 K
dTm [7]: -0.72 K
dTm [8]: 2.59 K
dTm [9]: 1.01 K

CC(C)(C)c1cc(NC(=O)Nc2cccc(-c3c[nH]c4ncnc(N5CCOCC5)c34)c2)n(-c2ccc3ncccc3c2)n1 [Compound 28]
dTm [1]: 1.32 K
dTm [2]: 6.08 K
dTm [3]: 5.08 K
dTm [4]: 3.13 K
dTm [5]: 10.25 K
dTm [6]: 3.91 K
dTm [7]: -0.65 K
dTm [8]: 8.21 K
dTm [9]: 7.10 K

COc1cc(C(=O)N2CCOCC2)c(F)cc1Nc1nc(N(C)C)c2c(Cl)c[nH]c2n1 [Compound 36]
dTm [1]: 0.40 K
dTm [2]: 10.31 K
dTm [3]: -1.33 K
dTm [4]: 2.56 K
dTm [5]: 5.31 K
dTm [6]: 7.95 K
dTm [7]: -0.93 K
dTm [8]: 0.37 K
dTm [9]: 0.60 K
